Values of other authors, collected in PMC5979345, “Identification of an ACE-Inhibitory Peptide from Walnut Protein and Its Evaluation of the Inhibitory Mechanism” (International Journal of Molecular Sciences, 2018).

Experiments:
[1] = tested on: ACE; settings: identified from Stichopus horrens
Description: To further evaluate the active mechanism of the novel ACEI peptide, the inhibition pattern of the peptide, EPNGLLLPQY, against ACE was investigated by the Line weaver-Burk plot analysis method. […] When the EPNGLLLPQY was added to the r ...

[2] = tested on: ACE; settings: from walnut protein digested by neutral proteinase As1.398, 45 °C, 5 h, pH 7.0
Description: In the present study, the peptide EPNGLLLPQY was identified from the hydrolysate of walnut protein digested by […]. Moreover, there were several reports related to the peptides from walnut protein hydrolysates with ACE-inhibitory activity.

Substance | Inhibition pattern [1] | ACE-inhibitory activity (in words) [2]
EVSQGRP [food-derived peptide identified from Stichopus horrens] | mixed-type of inhibition | 
LPGRPPIKPWPL |  | ACE-inhibitory peptides
SAAVGSP [food-derived peptide identified from Stichopus horrens] | mixed-type of inhibition | 
VSRHFASYAN [food-derived peptide identified from Stichopus horrens] | mixed-type of inhibition | 
WPERPPQIP |  | ACE-inhibitory peptides
